Laboratory results from patent US11246896B2, “Tumor-specific adenovirus vectors and therapeutic uses” (priority 2015, dated 2022).

Test system: RIN, MIN, β-TC1 (INSM1+ insulinomas)
Test: Cell survival assay (MTS), INSM1-positive insulinoma cells
Assay type: cell-based, rat, mouse
Conditions: 200 μM GCV, no virus, RTC-1 cells
Experimental: FIGS. 13A-13D illustrate that the oncolytic virus in combination with Ad-INSM1p-HSV-tk increased efficacy of tumor cell killing. An MTS colorimetric assay was conducted to measure the cell survival with 3 insulinoma cell lines: RIN, MIN, β-TC1 (INSM1^+ insulinomas), and Panc-1 (INSM1^− pancreatic epithelioid carcinoma).
FIG. 13D is a graph illustrating cells treated with a combination of Ad-IMSM1p-HSV-tk and Ad-INSM1p-E1A-HSV-tk viruses. Cells were first treated with virus ranging from 0-100 MOI. […] Cell survival was measured by MTS colorimetric analysis at 490 nm. (n=6). […]
FIG. 14D is a graph illustrating cells treated with a combination of Ad-IMSM1p-HSV-tk and Ad-INSM1p-E1A-HSV-tk viruses. […] Cell survival was measured by MTS colorimetric analysis at 490 nm. […]
Cell survival assay. […] Afterwards, cell survival was assessed using […] 96® AQueous One Solution Cell Proliferation Assay (Promega, cat. no. G3582) and read at 490 nm on a Bio-Tek Synergy-HT Microplate Reader. Results were plotted as relative absorbance (relative to control sample with no virus) against increasing viral MOI. Samples were conducted in six wells each and statistical significance was determined using the students T-test with a threshold of p<0.05.
For a second experiment, the same viral constructs were used to infect cancer cells at a constant 50 MOI. […] After the treatment period, cell survival was assessed using […] […]

## Nc1nc(O)c2ncn(COC(CO)CO)c2n1 [GCV, 2-amino-9-{[(1,3-dihydroxypropan-2-yl)oxy]methyl}-6,9-dihydro-3H-purin-6-one]
  cell survival with GCV in the absence of adenovirus: decrease in survival
